Data published in ChEMBL document CHEMBL3991601, “The target landscape of clinical kinase drugs” (Science, 2017).
The source made the active and inactive calls. On the calls: in the data inactive means no Kd found up to 30 µM.

Experiments:
[1] = target: Serine/threonine-protein kinase 24 (Homo sapiens, UniProt Q9Y6E0)
[2] = target: Dual specificity protein kinase CLK4 (Homo sapiens, UniProt Q9HAZ1)
[3] = target: T1, Protein kinase C zeta type (Homo sapiens, UniProt Q05513)
T1 sequence (Q05513 whole entry): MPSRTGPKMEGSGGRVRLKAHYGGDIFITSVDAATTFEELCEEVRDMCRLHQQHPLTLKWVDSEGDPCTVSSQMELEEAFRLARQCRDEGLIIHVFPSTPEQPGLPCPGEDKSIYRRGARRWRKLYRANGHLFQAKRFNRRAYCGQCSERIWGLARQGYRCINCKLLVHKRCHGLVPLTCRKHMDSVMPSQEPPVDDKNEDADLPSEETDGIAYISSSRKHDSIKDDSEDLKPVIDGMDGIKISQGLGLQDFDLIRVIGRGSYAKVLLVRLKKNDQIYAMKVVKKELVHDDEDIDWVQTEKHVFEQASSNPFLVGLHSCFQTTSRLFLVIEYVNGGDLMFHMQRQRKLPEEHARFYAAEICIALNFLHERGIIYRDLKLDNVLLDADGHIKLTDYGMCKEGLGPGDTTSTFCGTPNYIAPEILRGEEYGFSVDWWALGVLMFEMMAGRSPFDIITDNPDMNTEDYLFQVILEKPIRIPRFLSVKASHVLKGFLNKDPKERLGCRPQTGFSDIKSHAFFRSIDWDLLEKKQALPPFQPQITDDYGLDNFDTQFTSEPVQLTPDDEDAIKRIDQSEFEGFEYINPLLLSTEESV

[4] = target: Serine/threonine-protein kinase N3 (Homo sapiens, UniProt Q6P5Z2)
[5] = target: Serine/threonine-protein kinase ATR (Homo sapiens, UniProt Q13535)
[6] = target: T2, Cyclin-dependent kinase-like 5 (Homo sapiens, UniProt O76039)
T2 sequence (O76039 whole entry): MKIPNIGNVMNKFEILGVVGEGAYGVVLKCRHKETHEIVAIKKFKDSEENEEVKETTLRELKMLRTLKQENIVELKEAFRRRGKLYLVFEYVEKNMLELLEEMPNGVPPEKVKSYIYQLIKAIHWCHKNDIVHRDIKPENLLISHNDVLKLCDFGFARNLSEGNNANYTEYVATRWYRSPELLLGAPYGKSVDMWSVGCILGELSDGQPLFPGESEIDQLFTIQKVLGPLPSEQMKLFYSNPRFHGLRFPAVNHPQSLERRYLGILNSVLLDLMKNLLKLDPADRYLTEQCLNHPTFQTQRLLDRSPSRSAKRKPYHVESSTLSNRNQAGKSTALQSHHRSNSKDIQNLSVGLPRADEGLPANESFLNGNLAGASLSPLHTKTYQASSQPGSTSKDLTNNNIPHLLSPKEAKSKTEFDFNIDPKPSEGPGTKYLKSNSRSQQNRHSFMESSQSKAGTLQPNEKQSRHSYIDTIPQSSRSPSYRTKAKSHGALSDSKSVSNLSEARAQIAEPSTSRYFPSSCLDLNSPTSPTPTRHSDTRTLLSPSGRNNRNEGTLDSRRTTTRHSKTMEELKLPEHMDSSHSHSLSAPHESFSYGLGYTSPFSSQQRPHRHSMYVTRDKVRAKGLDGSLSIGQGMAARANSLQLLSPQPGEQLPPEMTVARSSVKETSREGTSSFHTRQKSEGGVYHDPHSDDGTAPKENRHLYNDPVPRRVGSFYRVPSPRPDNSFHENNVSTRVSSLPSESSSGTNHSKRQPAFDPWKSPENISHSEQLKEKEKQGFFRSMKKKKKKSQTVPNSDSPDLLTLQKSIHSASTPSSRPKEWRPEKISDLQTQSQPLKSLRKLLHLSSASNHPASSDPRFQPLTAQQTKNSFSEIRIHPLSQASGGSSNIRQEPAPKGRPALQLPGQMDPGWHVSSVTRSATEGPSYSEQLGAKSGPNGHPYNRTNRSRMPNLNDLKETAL

[7] = target: T3, Dual specificity protein kinase TTK (Homo sapiens, UniProt P33981)
T3 sequence (P33981 whole entry): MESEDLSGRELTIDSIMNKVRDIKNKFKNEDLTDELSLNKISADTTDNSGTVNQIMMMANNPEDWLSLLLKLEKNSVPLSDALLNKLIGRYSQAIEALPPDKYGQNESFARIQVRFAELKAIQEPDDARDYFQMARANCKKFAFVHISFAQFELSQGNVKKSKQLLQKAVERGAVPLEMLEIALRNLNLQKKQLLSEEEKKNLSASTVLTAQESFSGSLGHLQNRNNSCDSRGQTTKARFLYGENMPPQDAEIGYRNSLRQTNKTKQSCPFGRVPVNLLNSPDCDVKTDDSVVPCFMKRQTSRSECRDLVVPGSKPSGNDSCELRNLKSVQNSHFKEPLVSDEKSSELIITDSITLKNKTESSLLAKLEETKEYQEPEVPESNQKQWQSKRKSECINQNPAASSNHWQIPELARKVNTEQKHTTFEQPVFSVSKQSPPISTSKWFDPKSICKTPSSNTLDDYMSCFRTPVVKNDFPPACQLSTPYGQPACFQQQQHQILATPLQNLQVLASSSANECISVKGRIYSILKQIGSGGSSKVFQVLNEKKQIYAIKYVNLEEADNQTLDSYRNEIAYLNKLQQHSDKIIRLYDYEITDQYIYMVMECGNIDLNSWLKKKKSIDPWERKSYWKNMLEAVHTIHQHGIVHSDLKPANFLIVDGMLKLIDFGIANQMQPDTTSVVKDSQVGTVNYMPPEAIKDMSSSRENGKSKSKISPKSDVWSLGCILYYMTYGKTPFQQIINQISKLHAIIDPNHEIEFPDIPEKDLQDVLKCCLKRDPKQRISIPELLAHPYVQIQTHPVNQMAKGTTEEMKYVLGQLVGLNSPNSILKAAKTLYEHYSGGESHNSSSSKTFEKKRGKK

[8] = target: Misshapen-like kinase 1 (Homo sapiens, UniProt Q8N4C8)

Sequence of Serine/threonine-protein kinase 24 (Q9Y6E0 whole entry): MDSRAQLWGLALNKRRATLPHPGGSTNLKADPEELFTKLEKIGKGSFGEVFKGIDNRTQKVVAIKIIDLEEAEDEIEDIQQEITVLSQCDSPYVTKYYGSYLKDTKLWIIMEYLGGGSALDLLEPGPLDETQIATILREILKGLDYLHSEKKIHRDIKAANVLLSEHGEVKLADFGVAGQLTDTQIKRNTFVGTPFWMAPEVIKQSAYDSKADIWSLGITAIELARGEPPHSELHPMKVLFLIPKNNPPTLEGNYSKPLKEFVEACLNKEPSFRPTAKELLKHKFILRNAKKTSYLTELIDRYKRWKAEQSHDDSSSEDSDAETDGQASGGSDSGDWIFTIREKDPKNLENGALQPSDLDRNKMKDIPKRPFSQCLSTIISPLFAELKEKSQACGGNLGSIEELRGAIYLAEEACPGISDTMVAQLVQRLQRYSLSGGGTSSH
Sequence of Serine/threonine-protein kinase N3 (Q6P5Z2 whole entry): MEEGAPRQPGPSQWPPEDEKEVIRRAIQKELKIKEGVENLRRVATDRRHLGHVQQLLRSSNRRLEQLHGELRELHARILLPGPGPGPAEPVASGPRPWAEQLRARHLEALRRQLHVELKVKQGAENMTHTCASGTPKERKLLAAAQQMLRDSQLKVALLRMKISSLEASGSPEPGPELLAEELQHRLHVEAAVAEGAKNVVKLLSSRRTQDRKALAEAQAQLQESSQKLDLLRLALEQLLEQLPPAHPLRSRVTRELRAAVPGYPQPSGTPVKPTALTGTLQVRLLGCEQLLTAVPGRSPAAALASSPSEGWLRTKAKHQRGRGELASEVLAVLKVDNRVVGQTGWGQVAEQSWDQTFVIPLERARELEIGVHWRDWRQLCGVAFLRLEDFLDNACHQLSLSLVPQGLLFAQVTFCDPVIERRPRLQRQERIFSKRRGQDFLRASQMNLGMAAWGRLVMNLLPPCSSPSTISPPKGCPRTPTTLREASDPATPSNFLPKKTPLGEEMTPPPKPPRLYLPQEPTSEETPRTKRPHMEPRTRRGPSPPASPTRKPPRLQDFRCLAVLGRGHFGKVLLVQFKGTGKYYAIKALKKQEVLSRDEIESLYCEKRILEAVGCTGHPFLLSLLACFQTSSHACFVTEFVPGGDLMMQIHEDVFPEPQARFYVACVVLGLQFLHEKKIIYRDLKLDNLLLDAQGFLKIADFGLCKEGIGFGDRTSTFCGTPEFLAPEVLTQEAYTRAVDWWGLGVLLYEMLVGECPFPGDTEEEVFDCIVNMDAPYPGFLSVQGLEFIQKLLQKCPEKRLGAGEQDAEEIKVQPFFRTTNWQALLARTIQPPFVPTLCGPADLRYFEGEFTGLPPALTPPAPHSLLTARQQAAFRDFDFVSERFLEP
Sequence of Serine/threonine-protein kinase ATR (Q13535 whole entry): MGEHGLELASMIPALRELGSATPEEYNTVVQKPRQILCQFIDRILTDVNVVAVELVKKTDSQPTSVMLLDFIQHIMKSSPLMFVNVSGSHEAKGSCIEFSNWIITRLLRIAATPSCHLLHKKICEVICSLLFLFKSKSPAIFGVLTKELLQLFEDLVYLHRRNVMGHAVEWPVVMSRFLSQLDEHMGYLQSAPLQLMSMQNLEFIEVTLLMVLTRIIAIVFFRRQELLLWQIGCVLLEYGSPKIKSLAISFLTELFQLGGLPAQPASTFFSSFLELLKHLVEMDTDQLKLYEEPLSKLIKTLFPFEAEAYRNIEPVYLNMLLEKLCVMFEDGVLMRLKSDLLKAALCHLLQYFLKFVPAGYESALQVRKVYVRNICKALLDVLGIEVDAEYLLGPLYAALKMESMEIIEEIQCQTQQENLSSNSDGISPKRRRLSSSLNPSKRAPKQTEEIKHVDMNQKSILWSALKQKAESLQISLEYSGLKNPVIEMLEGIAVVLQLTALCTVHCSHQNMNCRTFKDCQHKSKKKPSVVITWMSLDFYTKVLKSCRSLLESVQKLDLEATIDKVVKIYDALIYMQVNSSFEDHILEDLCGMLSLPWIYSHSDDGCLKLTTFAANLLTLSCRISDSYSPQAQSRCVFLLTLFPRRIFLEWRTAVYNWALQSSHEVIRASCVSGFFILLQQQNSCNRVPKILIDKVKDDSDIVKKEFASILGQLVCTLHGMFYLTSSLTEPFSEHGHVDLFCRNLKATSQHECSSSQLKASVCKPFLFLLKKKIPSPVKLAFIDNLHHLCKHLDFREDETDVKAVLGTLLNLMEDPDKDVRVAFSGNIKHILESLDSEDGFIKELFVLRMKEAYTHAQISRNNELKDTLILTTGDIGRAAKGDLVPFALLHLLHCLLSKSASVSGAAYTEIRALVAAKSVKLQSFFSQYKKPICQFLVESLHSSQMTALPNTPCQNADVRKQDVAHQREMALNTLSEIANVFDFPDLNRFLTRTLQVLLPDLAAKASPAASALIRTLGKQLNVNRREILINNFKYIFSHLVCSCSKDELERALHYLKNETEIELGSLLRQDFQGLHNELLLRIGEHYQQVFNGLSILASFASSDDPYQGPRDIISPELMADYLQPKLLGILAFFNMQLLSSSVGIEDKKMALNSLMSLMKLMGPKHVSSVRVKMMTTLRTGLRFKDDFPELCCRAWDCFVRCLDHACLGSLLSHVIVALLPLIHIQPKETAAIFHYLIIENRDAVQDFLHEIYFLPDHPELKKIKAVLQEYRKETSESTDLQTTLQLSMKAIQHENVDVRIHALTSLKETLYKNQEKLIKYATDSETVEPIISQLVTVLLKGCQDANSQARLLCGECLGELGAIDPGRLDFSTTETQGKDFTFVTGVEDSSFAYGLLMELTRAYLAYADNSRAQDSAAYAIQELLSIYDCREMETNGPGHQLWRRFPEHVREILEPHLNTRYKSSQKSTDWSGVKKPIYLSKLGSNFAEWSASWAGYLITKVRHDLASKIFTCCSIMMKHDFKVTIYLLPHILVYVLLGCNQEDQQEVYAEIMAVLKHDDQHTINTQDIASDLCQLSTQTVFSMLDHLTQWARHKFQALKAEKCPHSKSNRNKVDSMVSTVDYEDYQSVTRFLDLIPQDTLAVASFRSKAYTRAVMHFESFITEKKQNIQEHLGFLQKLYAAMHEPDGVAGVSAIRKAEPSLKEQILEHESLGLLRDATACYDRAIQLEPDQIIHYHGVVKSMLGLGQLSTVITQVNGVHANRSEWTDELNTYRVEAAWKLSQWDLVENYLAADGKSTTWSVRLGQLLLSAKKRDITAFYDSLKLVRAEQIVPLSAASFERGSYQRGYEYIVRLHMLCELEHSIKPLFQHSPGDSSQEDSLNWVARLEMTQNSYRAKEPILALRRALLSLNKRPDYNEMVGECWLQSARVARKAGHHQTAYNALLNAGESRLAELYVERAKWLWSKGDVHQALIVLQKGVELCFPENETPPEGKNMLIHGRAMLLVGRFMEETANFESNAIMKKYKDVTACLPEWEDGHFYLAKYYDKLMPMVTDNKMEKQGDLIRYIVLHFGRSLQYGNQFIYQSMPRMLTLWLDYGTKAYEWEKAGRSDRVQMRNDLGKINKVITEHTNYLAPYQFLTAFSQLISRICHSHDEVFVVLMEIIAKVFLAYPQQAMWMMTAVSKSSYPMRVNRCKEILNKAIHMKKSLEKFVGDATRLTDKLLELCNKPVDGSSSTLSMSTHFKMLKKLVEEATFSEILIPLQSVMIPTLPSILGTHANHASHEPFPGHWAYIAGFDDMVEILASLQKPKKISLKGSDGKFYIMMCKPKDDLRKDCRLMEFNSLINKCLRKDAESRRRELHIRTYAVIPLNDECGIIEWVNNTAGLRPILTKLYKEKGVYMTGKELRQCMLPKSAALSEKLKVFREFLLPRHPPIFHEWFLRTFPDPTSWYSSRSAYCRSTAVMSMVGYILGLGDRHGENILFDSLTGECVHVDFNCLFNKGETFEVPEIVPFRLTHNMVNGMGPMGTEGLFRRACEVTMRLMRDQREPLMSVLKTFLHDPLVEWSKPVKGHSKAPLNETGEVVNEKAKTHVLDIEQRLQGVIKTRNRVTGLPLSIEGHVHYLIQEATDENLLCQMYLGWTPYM
Sequence of Dual specificity protein kinase CLK4 (Q9HAZ1 whole entry): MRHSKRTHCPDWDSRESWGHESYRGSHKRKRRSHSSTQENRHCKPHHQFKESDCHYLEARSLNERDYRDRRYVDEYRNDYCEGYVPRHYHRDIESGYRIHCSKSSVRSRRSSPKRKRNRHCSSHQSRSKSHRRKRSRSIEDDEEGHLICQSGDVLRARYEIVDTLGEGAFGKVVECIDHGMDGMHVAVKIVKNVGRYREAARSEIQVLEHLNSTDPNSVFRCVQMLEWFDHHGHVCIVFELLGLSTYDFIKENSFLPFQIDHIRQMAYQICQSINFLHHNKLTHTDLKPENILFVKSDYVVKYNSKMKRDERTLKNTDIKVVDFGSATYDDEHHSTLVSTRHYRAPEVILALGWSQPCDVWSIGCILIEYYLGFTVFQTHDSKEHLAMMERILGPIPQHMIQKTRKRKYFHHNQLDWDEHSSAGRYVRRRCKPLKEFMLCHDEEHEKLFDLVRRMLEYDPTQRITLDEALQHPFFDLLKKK

In the case of Cc1nc2cc(-c3nn(C(C)C)c4ncnc(N)c34)ccc2o1, the Kd [1] is reported as > 30 µM (inactive), the Kd [2] is reported as > 30 µM (inactive) and the Kd [3] is reported as > 30 µM (inactive). The Kd [4] was 0.013 µM, the Kd [5] was > 30 µM (inactive) and the Kd [6] was > 30 µM (inactive).
In the case of C=CC(=O)Nc1cc2c(Nc3ccc(F)c(Cl)c3)ncnc2cc1C#CC(C)(C)N1CCN(C)CC1 [AV-412 FREE BASE], the Kd [2] is reported as > 30 µM (inactive), the Kd [3] is reported as > 30 µM (inactive) and the Kd [4] is reported as > 30 µM (inactive). For the same compound, the Kd [5] was > 30 µM (inactive) and the Kd [6] was > 30 µM (inactive).
For CNC(=O)c1ccccc1Sc1ccc2c(/C=C/c3ccccn3)n[nH]c2c1 [AXITINIB], the Kd [3] was > 30 µM (inactive) and the Kd [4] was > 30 µM (inactive).
COCC(=O)NC/C=C/c1ccc2ncnc(Nc3ccc(Oc4ccc(C)nc4)c(C)c3)c2c1 [CP-724714] was tested, and the Kd [2] was > 30 µM (inactive), the Kd [3] was > 30 µM (inactive) and the Kd [4] was > 30 µM (inactive). For the same compound, the Kd [5] was > 30 µM (inactive) and the Kd [6] was > 30 µM (inactive).
C[C@@H](Oc1cc(-n2cnc3ccc(CN4CCN(C)CC4)cc32)sc1C(N)=O)c1ccccc1C(F)(F)F [GSK-461364] was tested, and the Kd [3] was > 30 µM (inactive), the Kd [4] was > 30 µM (inactive) and the Kd [5] was > 30 µM (inactive).
COc1ccc(S(=O)(=O)N(C(C)=O)c2ccccc2/C=C/c2cc[n+]([O-])cc2)cc1 [HMN-214] was tested, and the Kd [1] was > 30 µM (inactive), the Kd [2] was > 30 µM (inactive) and the Kd [3] was > 30 µM (inactive). The Kd [4] was > 30 µM (inactive), the Kd [5] was > 30 µM (inactive) and the Kd [6] was > 30 µM (inactive).
With Cc1cnc(NC(=O)Nc2cc(Br)c(C)cc2OC[C@@H]2CNCCO2)cn1 [RABUSERTIB] the Kd [1] was > 30 µM (inactive), the Kd [2] was > 30 µM (inactive) and the Kd [3] was > 30 µM (inactive). For the same compound, the Kd [4] was > 30 µM (inactive), the Kd [5] was > 30 µM (inactive) and the Kd [6] was > 30 µM (inactive).
In the case of CO[C@H]1C[C@@H]2CC[C@@H](C)[C@@](O)(O2)C(=O)C(=O)N2CCCC[C@H]2C(=O)O[C@H]([C@H](C)C[C@@H]2CC[C@@H](OP(C)(C)=O)[C@H](OC)C2)CC(=O)[C@H](C)/C=C(\C)[C@@H](O)[C@@H](OC)C(=O)[C@H](C)C[C@H](C)/C=C/C=C/C=C/1C [RIDAFOROLIMUS], the Kd [1] is reported as > 30 µM (inactive), the Kd [2] is reported as > 30 µM (inactive) and the Kd [7] is reported as > 30 µM (inactive). The Kd [3] was > 30 µM (inactive), the Kd [4] was > 30 µM (inactive) and the Kd [6] was > 30 µM (inactive).
N#CC1(c2ccc(NC(=O)c3cccnc3NCc3ccncc3)cc2)CCCC1 [RIVOCERANIB] was tested, and the Kd [1] was > 30 µM (inactive), the Kd [2] was > 30 µM (inactive) and the Kd [7] was > 30 µM (inactive). For the same compound, the Kd [3] was > 30 µM (inactive), the Kd [5] was > 30 µM (inactive) and the Kd [6] was > 30 µM (inactive).
With O=C(NOCCO)c1cc(CN2OCCCC2=O)c(F)c(F)c1Nc1ccc(I)cc1F [RO-4987655] the Kd [3] was > 30 µM (inactive), the Kd [4] was > 30 µM (inactive) and the Kd [5] was > 30 µM (inactive).
With CN1CCN(CCOc2cc(OC3CCOCC3)c3c(Nc4c(Cl)ccc5c4OCO5)ncnc3c2)CC1 [SARACATINIB] the Kd [1] was > 30 µM (inactive), the Kd [7] was > 30 µM (inactive) and the Kd [3] was > 30 µM (inactive). The Kd [4] was > 30 µM (inactive) and the Kd [5] was > 30 µM (inactive).
For CCS(=O)(=O)c1cccc(-c2cc(C(=O)NC3CCN(C)CC3)c(C)c3[nH]c4ncc(C)cc4c23)c1 [TAK-901], the Kd [1] was > 30 µM (inactive), the Kd [7] was > 30 µM (inactive) and the Kd [3] was > 30 µM (inactive).
In the case of COc1cc2c(Nc3ccc(Cl)c(Cl)c3F)ncnc2cc1OC[C@@H]1C[C@@H]2CN(C)C[C@@H]2C1 [TESEVATINIB], the Kd [1] is reported as > 30 µM (inactive), the Kd [2] is reported as > 30 µM (inactive) and the Kd [7] is reported as > 30 µM (inactive). For the same compound, the Kd [4] was > 30 µM (inactive), the Kd [5] was > 30 µM (inactive) and the Kd [6] was > 30 µM (inactive). For the same compound, the Kd [8] was > 30 µM (inactive).
O=C(Cc1ccc(-c2ccc(OCCN3CCOCC3)cc2)cn1)NCc1ccccc1 [TIRBANIBULIN] was tested, and the Kd [1] was > 30 µM (inactive), the Kd [2] was > 30 µM (inactive) and the Kd [3] was > 30 µM (inactive). For the same compound, the Kd [8] was > 30 µM (inactive).
With O=C1NC(=O)[C@@H](c2cn3c4c(cccc24)CCC3)[C@@H]1c1c[nH]c2ccccc12 [TIVANTINIB] the Kd [2] was > 30 µM (inactive) and the Kd [3] was > 30 µM (inactive).
In the case of CN1C/C=C/CCOc2cccc(c2)-c2ccnc(n2)Nc2cccc(c2)C1 [ZOTIRACICLIB], the Kd [3] is reported as > 30 µM (inactive), the Kd [5] is reported as > 30 µM (inactive) and the Kd [6] is reported as > 30 µM (inactive).
